Test results reported in PubChem BioAssay AID330 (DTP/NCI, 2004).
Several values for one entry are separate records, joined by “and”; a condition that tells them apart may be missing. Identical values can stand only once. Inconclusive results and toxic doses are left out. The calls were made as follows: active = survival T/C of 150% or more; inactive = T/C below 125% in these data.

Tested on: P388 leukemia ip, CD2F1 mice, survival T/C
Assay: NCI In Vivo Anticancer Drug Screen. Data for tumor model P388 Leukemia (intraperitoneal) in CD2F1 (CDF1) mice
Details: endpoint: median survival time, higher = longer survival
In short: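 Mice carrying the transplanted tumor received test compound or vehicle. Survival was recorded in each group, and the value is the treated-group measurement divided by that of the vehicle-treated control group.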

[1] = dose: 100.0 mg/kg/injection, schedule: Q01DX001 (ip), vehicle: saline
[2] = dose: 200.0 mg/kg/injection, schedule: Q01DX009 (ip), vehicle: saline with Tween-80
[3] = dose: 50.0 mg/kg/injection, schedule: Q01DX005 (ip), vehicle: saline with Tween-80
[4] = dose: 100.0 mg/kg/injection, schedule: Q01DX005 (ip), vehicle: saline with Tween-80
[5] = dose: 200.0 mg/kg/injection, schedule: Q01DX005 (ip), vehicle: saline with Tween-80
[6] = dose: 60.0 mg/kg/injection, schedule: Q01DX005 (ip), vehicle: Klucel (hydroxypropylcellulose) (HPC)
[7] = dose: 120.0 mg/kg/injection, schedule: Q01DX005 (ip), vehicle: Klucel (hydroxypropylcellulose) (HPC)
[8] = dose: 240.0 mg/kg/injection, schedule: Q01DX005 (ip), vehicle: Klucel (hydroxypropylcellulose) (HPC)
[9] = dose: 50.0 mg/kg/injection, schedule: Q01DX009 (ip), vehicle: saline
[10] = dose: 100.0 mg/kg/injection, schedule: Q01DX009 (ip), vehicle: saline
[11] = dose: 200.0 mg/kg/injection, schedule: Q01DX009 (ip), vehicle: saline

Measured: T/C

OCC1OC(n2ccc3c(Cl)ncnc32)C(O)C1O (stereo not drawn)
inactive: dose: 6.25 mg/kg/injection, schedule: Q01DX005 (ip), vehicle: suspension in saline 110 % of control | dose: 12.5 mg/kg/injection, schedule: Q01DX005 (ip), vehicle: suspension in saline 117 % of control | dose: 25.0 mg/kg/injection, schedule: Q01DX005 (ip), vehicle: suspension in saline 96 % of control

COc1cc2c(cc1C(C)c1ccc(OCC(=O)O)cc1)OCO2 (stereo not drawn)
inactive: dose: 50.0 mg/kg/injection, schedule: Q01DX005 (ip), vehicle: distilled water + Tween-80 96 % of control | dose: 100.0 mg/kg/injection, schedule: Q01DX005 (ip), vehicle: distilled water + Tween-80 105 % of control | dose: 200.0 mg/kg/injection, schedule: Q01DX005 (ip), vehicle: distilled water + Tween-80 100 % of control

COc1ccc(CS(=O)(=O)c2cnc(N3CCN(C)CC3)nc2N)cc1OC
inactive: [1] 101 % of control | dose: 200.0 mg/kg/injection, schedule: Q01DX001 (ip), vehicle: saline 98 % of control | dose: 400.0 mg/kg/injection, schedule: Q01DX001 (ip), vehicle: saline 98 % of control

CC(C)CCCC(C)C1CCC2C3CCC4N(CCCl)CCCC4(C)C3CCC12C (stereo not drawn)
inactive: dose: 25.0 mg/kg/injection, schedule: Q01DX001 (ip), vehicle: saline 100 % of control | dose: 50.0 mg/kg/injection, schedule: Q01DX001 (ip), vehicle: saline 99 % of control | [1] 94 % of control

[Cl][Pt+2]([Cl])([Cl])[Cl].[Na+].[S-]c1ncnc2nc[nH]c12.[S-]c1ncnc2nc[nH]c12
inactive: dose: 132.0 mg/kg/injection, schedule: Q01DX009 (ip), vehicle: saline with Tween-80 100 % of control | [2] 109 % of control

CC(C)c1cc(=O)c2cc3[nH]c4ccccc4c3cc2[nH]1
inactive: [3] 97 % of control | [4] 87 % of control | [5] 90 % of control

CCCCCCCCC#CCCCCCCCCCCCC(=O)O
inactive: dose: 50.0 mg/kg/injection, schedule: Q01DX009 (ip), vehicle: saline with Tween-80 88 % of control | [2] 90 % of control

CCOC(=O)C(CCC[n+]1ccc2ccccc2c1)C(=O)OCC
inactive: dose: 50.0 mg/kg/injection, schedule: Q01DX005 (ip), vehicle: Klucel (hydroxypropylcellulose) (HPC) 96 % of control | dose: 100.0 mg/kg/injection, schedule: Q01DX005 (ip), vehicle: Klucel (hydroxypropylcellulose) (HPC) 98 % of control | dose: 200.0 mg/kg/injection, schedule: Q01DX005 (ip), vehicle: Klucel (hydroxypropylcellulose) (HPC) 98 % of control

N#CC1=NOC(C(N)C(=O)O)C1 (stereo not drawn)
inactive: dose: 50.0 mg/kg/injection, schedule: Q04DX002 (ip), vehicle: saline 103 % of control | dose: 100.0 mg/kg/injection, schedule: Q04DX002 (ip), vehicle: saline 100 % of control | dose: 200.0 mg/kg/injection, schedule: Q04DX002 (ip), vehicle: saline 98 % of control

Cc1ccc2nc(Nc3nc(C)cc(C)n3)[nH]c2c1
inactive: [6] 103 % of control | [7] 100 % of control | [8] 97 % of control

C=C1C(=O)O[C@@H]2C(=O)[C@@H](C)[C@@H]3C=CC(=O)[C@@]3(C)[C@@H](OC(=O)/C(C)=C\C)[C@H]12
inactive: dose: 2.0 mg/kg/injection, schedule: Q01DX009 (ip), vehicle: saline + alcohol 107 % of control | dose: 4.0 mg/kg/injection, schedule: Q01DX009 (ip), vehicle: saline + alcohol 99 % of control | dose: 8.0 mg/kg/injection, schedule: Q01DX009 (ip), vehicle: saline + alcohol 109 % of control and 123 % of control | dose: 16.0 mg/kg/injection, schedule: Q01DX009 (ip), vehicle: saline + alcohol 116 % of control

Cc1cc(C)nc(NS(=O)(=O)c2ccc(NC(=S)Nc3ccccc3)cc2)n1
inactive: [3] 96 % of control | [4] 90 % of control | [5] 91 % of control

O=C(O)C(Cc1cccc(F)c1)NC(=O)C(F)(F)F (stereo not drawn)
inactive: dose: 6.25 mg/kg/injection, schedule: Q01DX009 (ip), vehicle: saline 98 % of control

CCCOc1cncc(C)n1
inactive: dose: 12.5 mg/kg/injection, schedule: Q01DX009 (ip), vehicle: saline 95 % of control | dose: 25.0 mg/kg/injection, schedule: Q01DX009 (ip), vehicle: saline 87 % of control | [9] 101 % of control and 97 % of control

CC(C)C12CCC3(C)CCC1(C)CCC32O (stereo not drawn)
inactive: dose: 12.0 mg/kg/injection, schedule: Q01DX009 (ip), vehicle: Klucel (hydroxypropylcellulose) (HPC) 111 % of control | dose: 24.0 mg/kg/injection, schedule: Q01DX009 (ip), vehicle: Klucel (hydroxypropylcellulose) (HPC) 96 % of control | dose: 48.0 mg/kg/injection, schedule: Q01DX009 (ip), vehicle: Klucel (hydroxypropylcellulose) (HPC) 96 % of control | dose: 96.0 mg/kg/injection, schedule: Q01DX009 (ip), vehicle: Klucel (hydroxypropylcellulose) (HPC) 111 % of control

Brc1cnc2nc(Cc3cccc4ccccc34)[nH]c2c1
inactive: dose: 100.0 mg/kg/injection, schedule: Q01DX001 (ip), vehicle: saline with Tween-80 109 % of control | dose: 200.0 mg/kg/injection, schedule: Q01DX001 (ip), vehicle: saline with Tween-80 103 % of control | dose: 400.0 mg/kg/injection, schedule: Q01DX001 (ip), vehicle: saline with Tween-80 97 % of control

CCCCOCCOCCOC1C2CC3C1C3(OCCOCCOCCCC)C2 (stereo not drawn)
inactive: [9] 104 % of control | [10] 99 % of control | [11] 104 % of control

O=C(O)/C=C\C(=O)N[C@H]1CCSC1=O
inactive: [6] 94 % of control | [7] 94 % of control | [8] 90 % of control

CCCCNC(=O)ON1C(=O)c2ccccc2C1=O
inactive: dose: 1.56 mg/kg/injection, schedule: Q01DX009 (ip), vehicle: saline with Tween-80 105 % of control | dose: 3.12 mg/kg/injection, schedule: Q01DX009 (ip), vehicle: saline with Tween-80 105 % of control | dose: 6.25 mg/kg/injection, schedule: Q01DX009 (ip), vehicle: saline with Tween-80 102 % of control and 117 % of control | dose: 12.5 mg/kg/injection, schedule: Q01DX009 (ip), vehicle: saline with Tween-80 110 % of control and 113 % of control | dose: 25.0 mg/kg/injection, schedule: Q01DX009 (ip), vehicle: saline with Tween-80 119 % of control

CCOC(=O)C(CCC(OCC)OCC)C(=O)OCC
inactive: [9] 103 % of control | [10] 102 % of control | [11] 101 % of control

CC1CN(S(=O)(=O)c2cc(Cl)c(Oc3ccc([N+](=O)[O-])cc3Cl)c(Cl)c2)CC(C)O1 (stereo not drawn)
inactive: [6] 106 % of control | [7] 101 % of control | [8] 97 % of control

O=S(=O)(O)C1CC(S(=O)(=O)O)NC(S(=O)(=O)O)C1 (stereo not drawn)
inactive: dose: 50.0 mg/kg/injection, schedule: Q01DX005 (ip), vehicle: saline 99 % of control | dose: 100.0 mg/kg/injection, schedule: Q01DX005 (ip), vehicle: saline 98 % of control | dose: 200.0 mg/kg/injection, schedule: Q01DX005 (ip), vehicle: saline 94 % of control

c1ccc(Nc2ncnc3ccccc23)cc1
inactive: dose: 50.0 mg/kg/injection, schedule: Q01DX009 (ip), vehicle: Klucel (hydroxypropylcellulose) (HPC) 102 % of control | dose: 100.0 mg/kg/injection, schedule: Q01DX009 (ip), vehicle: Klucel (hydroxypropylcellulose) (HPC) 102 % of control | dose: 200.0 mg/kg/injection, schedule: Q01DX009 (ip), vehicle: Klucel (hydroxypropylcellulose) (HPC) 112 % of control

c1ccc2c(c1)oc1cc3c(cc12)ncc1cccn13
inactive: dose: 1.56 mg/kg/injection, schedule: Q01DX005 (ip), vehicle: saline with Tween-80 103 % of control | dose: 3.12 mg/kg/injection, schedule: Q01DX005 (ip), vehicle: saline with Tween-80 100 % of control | dose: 6.25 mg/kg/injection, schedule: Q01DX005 (ip), vehicle: saline with Tween-80 97 % of control | dose: 12.5 mg/kg/injection, schedule: Q01DX005 (ip), vehicle: saline with Tween-80 90 % of control
